We go through 16 molecules from BindingDB's records for doi:10.1016/j.chembiol.2007.10.011 (Vanderbilt University, 2007).

Values joined by “and” are separate entries in the source; they are usually repeats but may differ in a detail not shown here. Equal values may be shown once.

The target of assay [1] is Lanosterol 14-alpha-demethylase (Trypanosoma brucei brucei (strain 927/4 GUTat10.1), UniProt Q385E8). Description: Inhibition Assay. The following applies: pH 6.
Assay [2] concerns the target Sterol 14-alpha demethylase (Trypanosoma cruzi (strain CL Brener), UniProt Q7Z1V1). Description: Inhibition Assay. The following applies: pH 6.

Sequence of Sterol 14-alpha demethylase (Q7Z1V1 whole entry): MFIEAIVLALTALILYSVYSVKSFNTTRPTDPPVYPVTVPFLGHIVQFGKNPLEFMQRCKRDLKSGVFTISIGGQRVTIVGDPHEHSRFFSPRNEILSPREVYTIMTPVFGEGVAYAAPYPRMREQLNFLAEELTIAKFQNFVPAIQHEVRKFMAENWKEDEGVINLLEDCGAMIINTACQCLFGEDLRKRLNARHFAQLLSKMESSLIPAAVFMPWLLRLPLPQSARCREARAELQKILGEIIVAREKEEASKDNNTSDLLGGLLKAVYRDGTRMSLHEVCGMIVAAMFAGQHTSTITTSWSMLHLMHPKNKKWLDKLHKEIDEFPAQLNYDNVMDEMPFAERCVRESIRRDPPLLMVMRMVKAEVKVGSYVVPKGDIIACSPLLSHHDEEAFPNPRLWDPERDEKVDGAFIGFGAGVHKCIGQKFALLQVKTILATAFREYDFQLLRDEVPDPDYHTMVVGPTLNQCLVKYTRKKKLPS
Sequence of Lanosterol 14-alpha-demethylase (Q385E8 whole entry): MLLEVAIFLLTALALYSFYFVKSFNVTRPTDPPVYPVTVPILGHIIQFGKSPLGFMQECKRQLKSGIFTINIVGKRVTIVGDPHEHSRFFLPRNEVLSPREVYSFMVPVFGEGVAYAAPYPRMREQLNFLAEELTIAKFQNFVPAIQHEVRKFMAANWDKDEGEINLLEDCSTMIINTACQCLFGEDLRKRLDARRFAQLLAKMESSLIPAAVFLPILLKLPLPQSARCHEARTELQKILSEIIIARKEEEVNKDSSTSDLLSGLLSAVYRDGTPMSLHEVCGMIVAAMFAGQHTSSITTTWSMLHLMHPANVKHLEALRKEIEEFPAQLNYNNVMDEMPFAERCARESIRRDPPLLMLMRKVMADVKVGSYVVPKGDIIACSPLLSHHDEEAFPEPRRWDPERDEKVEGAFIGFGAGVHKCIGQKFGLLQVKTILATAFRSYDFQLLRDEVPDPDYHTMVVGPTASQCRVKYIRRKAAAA

In general, Kd refers to the free concentration of one partner at which half of the binding sites on the other are occupied at equilibrium, for simple one-to-one binding. Higher therefore signals weaker binding. `CC(=O)N1CCN(c2ccc(OC[C@H]3CO[C@](Cn4ccnc4)(c4ccc(Cl)cc4Cl)O3)cc2)CC1` [24F2-1,25(OH)D3] registered a Kd in assay [1] of 2.3 µM. For the molecule `O=C(NCC(c1ccc(Cl)cc1)(c1ccc(Cl)cc1)n1ccnc1)c1ccccc1` [Azole, 1], the results for the Kd in assay [2] and in assay [1] were 0.32 µM and 1.01 µM, respectively. For the molecule `O=C(NC(Cn1ccnc1)c1ccc(Cl)cc1Cl)c1nnc(-c2ccccc2)o1` (centres undefined) [Azole, 2], in assay [1], the Kd is 0.09 µM and 0.1 µM. On to `O=C(NC(Cn1ccnc1)c1ccc(Cl)cc1Cl)c1nnc(-c2ccccc2)o1` (centres undefined) [Azole, 3], for which the Kd in assay [2] and in assay [1] was 0.14 µM in each case. Take `O=C(NC(Cn1ccnc1)c1ccccc1)c1ccc(-c2ccc(Cl)cc2)cc1` (centres undefined) [Azole, 4]: the Kd in assay [2] worked out at 0.07 µM; in assay [1], 0.05 µM.

Consider `O=C(NCC(c1ccccc1)n1ccnc1)c1cnc[nH]1` (centres undefined) [Azole, 5], for which the Kd in assay [2] was 1.2 µM; in assay [1] it was 1.9 µM. Turning to `O=C(NCC(c1ccccc1)n1ccnc1)c1cccc2c1oc1ccccc12` (centres undefined) [Azole, 6], the equilibrium dissociation constant (Kd) came to 0.13 µM in assay [2] and 0.21 µM in assay [1]. Taken in the same sequence, the figures for `O=C(NCC(c1ccccc1)n1ccnc1)c1ccc2sc3ccccc3c(=O)c2c1` (centres undefined) [Azole, 7] were 0.38 µM and 0.31 µM. Consider `O=C(NCC(c1ccccc1)n1ccnc1)c1csc(-c2ccc(Cl)cc2)c1` (centres undefined) [Azole, 8], for which the Kd was found to be 0.11 µM in assay [2] and 0.21 µM in assay [1]. As for `COc1cccc(Sc2ccc(C(=O)NCC(c3ccccc3)n3ccnc3)cc2)c1` (centres undefined) [Azole, 9], the Kd in assay [2] turned out to be 0.09 µM; in assay [1] it was 0.07 µM. Turning to `O=C(NCC(c1ccccc1)n1ccnc1)c1cccc(Sc2ccccc2)c1` (centres undefined) [Azole, 10], the Kd in assay [2] and in assay [1] was 0.05 µM each time. On to `COc1ccc(CC(CNC(=O)c2ccc(-c3ccc(Cl)cc3)cc2)n2ccnc2)cc1` (centres undefined) [Azole, 11], for which the figures for the Kd in assay [2] and in assay [1] were 0.11 µM and 0.71 µM, respectively. Turning to `O=C(NCC(c1ccccc1)n1ccnc1)c1ccc(-c2ccc(Cl)cc2)cc1` (centres undefined) [Azole, 12], the Kd in assay [2] is 0.07 µM; in assay [1] it was 0.04 µM. For the molecule `CCCCOc1ccc(-c2ccc(C(=O)NC(Cn3ccnc3)c3ccc(Cl)cn3)cc2)cc1` (centres undefined) [Azole, 17], the Kd in assay [2] stood at 0.11 µM; in assay [1], 0.08 µM. Consider `O=C(NC(Cn1ccnc1)c1ccc(Cl)cn1)c1ccc(-c2ccc(Cl)cc2)cc1` (centres undefined) [Azole, 19], for which the Kd was found to be 0.06 µM in assay [2] and 0.09 µM in assay [1]. For `O=C(NC(Cn1ccnc1)c1ccc(Cl)cn1)c1ccc(-c2ccc(Cl)cc2)cc1` (centres undefined) [Azole, 20], in assay [2], the Kd turned out to be 0.07 µM.
